The subject of this assay is Caenorhabditis elegans. Kind of assay: Longevity-promoting activity in wild type Caenorhabditis elegans N2 assessed as increase in lifespan at 50 ppm by microscopic analysis. The class given is functional, organism-based.

The source made the active and inactive calls. The calls are words filed in the database; no cut-off is given here.

These results are taken from ChEMBL document CHEMBL1152679, “The lifespan-promoting effect of acetic acid and Reishi polysaccharide” (2009).

As for `O=C(O)c1ccccc1`, the result was inactive. As for `O=C(O)CC(O)(CC(=O)O)C(=O)O`, the outcome was inactive. In the case of `CC(=O)O` it was “Active”.
